From publication PMC5428017, “Targeting to the non-genomic activity of retinoic acid receptor-gamma by acacetin in hepatocellular carcinoma” (Scientific Reports, 2017) come the findings set out here.

In one data set the target is T1, RARα (Homo sapiens, UniProt P10276).
T1 construct: gene RARA; RARα LBD
T1 sequence (P10276 183-417 limits assumed): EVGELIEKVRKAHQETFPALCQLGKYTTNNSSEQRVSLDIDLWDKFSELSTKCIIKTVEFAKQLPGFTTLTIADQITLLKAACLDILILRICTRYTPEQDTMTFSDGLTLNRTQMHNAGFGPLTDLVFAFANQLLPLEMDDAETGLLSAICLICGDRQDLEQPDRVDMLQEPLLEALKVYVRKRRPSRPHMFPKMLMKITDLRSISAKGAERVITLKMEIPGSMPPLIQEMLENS
Briefly: competitive radioligand displacement of [3H]atRA from RARα LBD. It is filed as binding. In general terms: Displacement assays read how much labelled ligand stays bound in the presence of the test substance.

Another data set concerns the target T2, RARβ (Homo sapiens, UniProt P10826).
T2 construct: gene RARB; RARβ LBD
T2 sequence (P10826 183-417 limits assumed): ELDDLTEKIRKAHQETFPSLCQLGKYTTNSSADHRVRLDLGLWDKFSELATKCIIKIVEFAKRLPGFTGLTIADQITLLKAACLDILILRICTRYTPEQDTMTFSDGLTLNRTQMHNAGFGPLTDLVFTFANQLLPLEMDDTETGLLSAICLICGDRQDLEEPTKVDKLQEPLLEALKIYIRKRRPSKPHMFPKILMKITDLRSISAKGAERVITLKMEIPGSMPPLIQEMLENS
Briefly: competitive radioligand displacement of [3H]atRA from RARβ LBD. The data set is classed as binding.

The target of data set [1] is T3, retinoic acid receptor-γ (RARγ) (Homo sapiens, UniProt P13631, R278A).
T3 construct: gene RARG; Gal4-RARγ/R278A
T3 sequence (P13631 185-419 R278A limits assumed): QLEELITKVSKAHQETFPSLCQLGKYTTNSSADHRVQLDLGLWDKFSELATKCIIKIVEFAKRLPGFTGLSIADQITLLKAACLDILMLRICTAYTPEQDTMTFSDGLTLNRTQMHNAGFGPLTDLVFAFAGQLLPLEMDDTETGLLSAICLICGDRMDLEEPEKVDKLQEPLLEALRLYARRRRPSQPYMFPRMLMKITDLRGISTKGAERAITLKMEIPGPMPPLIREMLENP
Briefly: Gal4-RARγ luciferase reporter in HEK293T cells, […] atRA. The data set is classed as cell-based. To be noted: 0.1 µM.

Data set [2] addresses T4, retinoic acid receptor-γ (RARγ) (Homo sapiens, UniProt P13631).
T4 construct: gene RARG; RARγ LBD
T4 sequence (P13631 185-419 limits assumed): T3 sequence (P13631 185-419 R278A limits assumed) with A94R
Briefly: competitive radioligand displacement of [3H]atRA from purified RARγ LBD; supported by GFP-RARγ fluorescence quenching in cells and reporter antagonism. The data set is classed as binding.

Each structure is given as a SMILES string. Substitutions are numbered along the chain they refer to.

Take `CC1=C(/C=C/C(C)=C/C=C/C(C)=C/C(=O)O)C(C)(C)CCC1` [atRA]: the “competitive radioligand displacement of [3H]atRA from RARα LBD” value on RARα is “both [^3H]atRA-bound complexes could be displaced by unlabeled atRA but not by acacetin”. Also, the “competitive radioligand displacement of [3H]atRA from RARβ LBD” value on RARβ was “both [^3H]atRA-bound complexes could be displaced by unlabeled atRA but not by acacetin”. The “Gal4-RARγ luciferase reporter in HEK293T cells, 10^-7 M atRA” value in data set [1] was found to be 22 fold activation.
For orientation: IC50 means the concentration at which inhibition is half-maximal. As to `COc1ccc(-c2cc(=O)c3c(O)cc(O)cc3o2)cc1` [acacetin, 5,7-dihydroxy-4′-methoxyflavone], the IC50 in data set [2] is 12.8 µM.
